US20260207648A1, “NOVEL SMALL MOLECULE KRAS INHIBITOR: DRUGGING UNDRUGGABLE TARGETS FOR CANCER THERAPEUTICS” (PILLAI UNIVERSAL LLC, priority 2022, published 2026)
Read-outs that look alike come from different tables or passages of the source.

Columns and labels:
Control cell lines = assay: Cell-cycle regulation and apoptosis in control cell lines; assay type: cell-based; conditions: control cell lines compared with KRAS Mutated cell lines
[1] = test system: MCF7, HT-29, HEP G2, A549; assay: Cell viability (MTT assay) on human adenocarcinoma cell lines; assay type: cell-based; conditions: 48 hours, 250 to 0.97 nmol/L
Method: (§1) Several cell lines including human breast carcinoma (MCF7), colon adenocarcinoma (HT-29), Liver adenocarcinoma (HEP G2), Lung adenocarcinoma (A549) were treated with a range of COMPOUND I for 48 hours and the percentage of cell viability was determined by MTT assay. The average total viable cells were precisely calculated and anti-proliferative effects were determined. […] The drug were also tested on normal monkey Kidney epithelial cells.

Ras-GTP complex = assay: Ras pull-down assay; assay type: cell-based, human; conditions: PANC-1, MIA PaCa-2 and NCIH1975; read-out: IC50 Ras-GTP complex formation
Method: As a follow up to the downstream assays, the ability of COMPOUND I was also measured to inhibit Ras-GTP complex formation in the three tested cell-lines (PANC-1, MIA PaCa-2 and NCIH1975) using a Ras pull-down assay. […] These values correlate well with the IC50 values obtained for the inhibition of MEK, Erk1/2 and Akt phosphorylation presented in FIGS. 2 and 3.

[2] = test system: p53, p21, p27, Cyclin B, cdc2, CDK2, CDK4, CDK6, Cyclin D1, Cyclin D3, pRb; assay: Protein levels of cell cycle regulatory proteins; assay type: cell-based
Method: (§2) Flow cytometry analysis was performed to verify whether COMPOUND I induced apoptosis was related to cell cycle arrest. Cell cycle distribution in KRAS Mutated cell lines was quantified after treatment with different COMPOUND I concentrations. […] Therefore, it was attempted to determine whether COMPOUND I treatment also can influence the expression level of G1/S phase cell cycle regulatory proteins.

[3] = test system: normal monkey Kidney epithelial cells; assay: MTT cytotoxicity on normal cells; assay type: cell-based; conditions: normal monkey Kidney epithelial cells versus cancer cell lines
Method: as §1

MEK = assay: Inhibition of Ras downstream pathways: MEK phosphorylation; assay type: cell-based; conditions: Homo sapiens, read-out: IC50 phosphorylation and activation of MEK
Method: (§3) The inhibitory effects of compounds COMPOUND I was tested on Ras-associated signal transduction pathways in three different human cell lines: the pancreatic cell-lines PANC-1 (K-Ras G12D mutant), MIA PaCa-2 (K-Ras G12C mutant), and the non-small cell lung cancer cell-line NCI-H1975 (KRas WT). FIG. 8 illustrate the inhibitory effects of COMPOUND I on phosphorylation and activation of MEK, Erk1/2 and Akt in those three cell lines. […] In contrast, the IC50s of compound COMPOUND I on the phosphorylation and activation of MEK and Erk1/2 were approximately 2 μM in PANC-1 and MIA PaCa-2 and 3 μM in NCI-H1975; and, of Akt, were approximately 5 μM in PANC-1 and MIA PaCa-2 and 5 μM in NCIH1975 (FIG. 8).

MEK, Erk1/2 and Akt = assay: Inhibition of Ras downstream pathways (summary over readouts and cell lines); assay type: cell-based; conditions: Homo sapiens; PANC-1, MIA PaCa-2 and NCI-H1975; read-out: IC50 phosphorylation and activation of MEK, Erk1/2 and Akt
Method: as §3

[4] = test system: PANC-1, MIA PaCa-2, NCIH1975, A549 (K-Ras G12S mutant), NCI-H1299 (N-Ras Q61K mutant); assay: Cellular proliferation of Ras wild type/mutant cell lines; assay type: cell-based; conditions: Homo sapiens; range over all tested cell lines
Method: The inhibition of compounds COMPOUND I on the cellular proliferation of […] cell lines were measured: The three cell lines in the signaling studies (PANC-1, MIA PaCa-2, NCIH1975), and the non-small cell lung cancer lines A549 (K-Ras G12S mutant) and NCI-H1299 (N-Ras Q61K mutant). FIG. 7 and IC50 values measured in these studies. […] Consistent with the notion that these compounds are pan-Ras superfamily inhibitors, it is reasonable to speculate that they can inhibit pathways downstream of several members of the Rassuperfamily.

KRAS Mutated cell lines = assay: Flow cytometry cell cycle distribution; assay type: cell-based
Method: as §2

apoptosis = assay: DNA fragmentation assay / apoptosis quantitation; assay type: cell-based
Method: (§4) To confirm that COMPOUND I induced cell apoptosis, DNA fragmentation assay, was performed. […] Furthermore, the expression levels of proteins related to apoptosis and cell cycle progression by western blotting were examined. Cells were treated with COMPOUND I at different concentrations and total proteins were isolated. Beta-Actin was used as an internal control. […] The effect of drugs on the cleavage of procaspase 9 and procaspase 3 were examined. […] Caspase-3 is a key regulator of mitochondrial dependent and independent apoptotic pathways and activation of caspase-3 leads to cleavage of several substrates including PARP.

[5] = test system: Bcl-2, Bax, caspase-9, caspase-3, PARP; assay: Western blotting of apoptosis-related proteins; assay type: cell-based; conditions: western blot
Method: as §4

Akt = assay: Inhibition of Ras downstream pathways: Akt phosphorylation; assay type: cell-based; conditions: Homo sapiens, read-out: IC50 phosphorylation and activation of Akt
Method: as §3

Akt, mTOR, ERK = assay: Akt/mTOR/ERK pathway activation; assay type: cell-based
Source text: In order to better understand the molecular basis of COMPOUND I induced cell cycle arrest and apoptosis, the expression of Akt and mTOR was investigated with various concentrations of COMPOUND I. Akt/mTOR is an important cell survival pathway and activated Akt inhibits apoptosis leading to cell survival. […] Additionally, it was examined whether COMPOUND I effect involved ERK signaling pathway and found the decreased activation of ERK.

Erk1/2 = assay: Inhibition of Ras downstream pathways: Erk1/2 phosphorylation; assay type: cell-based; conditions: Homo sapiens, read-out: IC50 phosphorylation and activation of Erk1/2
Method: as §3

Structure (SMILES): COc1cc(C(C)=O)ccc1C(=O)COP(=O)(O)OP(=O)(O)OP(=O)(O)OCC1OC(n2cnc3c(=O)[nH]c(Nc4ccc(O)cc4)nc32)C(O)C1O (centres unmarked) [COMPOUND I]
- changes in cell-cycle regulation and apoptosis (Control cell lines): better protected
- proliferation / cell viability [1]: inhibited the proliferation of all the cell lines in a dose-dependent manner
- IC50 (Ras-GTP complex): 2000 to 3000 nM
- expression levels of p21, p27 and p53 ([2]; KRAS Mutated cell lines): Greater expression levels
- expression levels of CDK4, CDK6, Cyclin D1, Cyclin D3, pRb ([2]; dose-dependent): decreased significantly
- expression levels of Cyclin B, cdc2, CDK2 ([2]; dose-dependent): decreased significantly
- sensitivity to induced cytotoxicity [3]: less sensitive
- IC50 (MEK; MIA PaCa-2 (K-Ras G12C mutant)): ~2000 nM
- IC50 (MEK; NCI-H1975 (KRas WT)): ~3000 nM
- IC50 (MEK; PANC-1 (K-Ras G12D mutant)): ~2000 nM
- IC50 (MEK, Erk1/2 and Akt): 1000 to 3000 nM
- IC50 [4]: 450 to 1200 nM
- cells showing G1/S phase arrest (KRAS Mutated cell lines): 23.98%
- number of cells in the G2/M phase (KRAS Mutated cell lines): 76.89%
- DNA fragmentation (ladder pattern in agarose gels) (apoptosis; 48 hours, all concentrations tested): lead to DNA fragmentation
- apoptosis (quantitative analysis) (apoptosis; treated cells): significant increase of apoptosis
- cleavage of PARP into 116 kDa and 84 kDa fragment [5]: induced the cleavage of PARP
- cleavages of procaspase 9 and procaspase 3 [5]: induced in a dose-dependent manner
- expression of Bcl-2 ([5]; dose dependent): down regulated
- expression of proapoptotic proteins Bax, caspase-9 and caspase-3 ([5]; dose dependent): induced expression
- IC50 (Akt; NCI-H1975, NCIH1975 (KRas WT)): ~5000 nM
- IC50 (Akt; MIA PaCa-2 (K-Ras G12C mutant)): ~5000 nM
- IC50 (Akt; PANC-1 (K-Ras G12D mutant)): ~5000 nM
- total Akt and mTOR levels (Akt, mTOR, ERK): remained constant
- phosphorylation of Akt and mTOR (Akt, mTOR, ERK; Serine 473 and Serine 2448, concentration-dependent): suppressed
- phosphorylation of ERK (Akt, mTOR, ERK; Threonine 202 and Tyrosine 204): suppressed
- IC50 (Erk1/2; MIA PaCa-2 (K-Ras G12C mutant)): ~2000 nM
- IC50 (Erk1/2; NCI-H1975 (KRas WT)): ~3000 nM
- IC50 (Erk1/2; PANC-1 (K-Ras G12D mutant)): ~2000 nM
